Patent publication US20260083815A1, “COMPOSITION FOR INHIBITING TOXICITY OF NANOPARTICLES AND ENVIRONMENTALLY-DERIVED FINE PARTICLES” (AJOU UNIVERSITY INDUSTRY-ACADEMIC COOPERATION FOUNDATION, priority 2019, published 2026)
Like-named read-outs stand apart in the source and are kept apart here.

Assays:
[1] = system: microglia; conditions: 24 hours
Procedure: Microglia cultured by the cell culture method of Example 1 was treated with 0.1 μg/μl of MNPs@SiO2(RITC) (average diameter of 50 nm), silica nanoparticles (SiO2, average diameter of 50 nm), silver nanoparticles (Ag, average diameter of 20 nm), gold nanoparticles (Au, average diameter of 10 nm), quantum dot nanoparticles (CdSe, average diameter of 10 nm), polystyrene microplastics (PS, average diameter of 2 μm and 100 nm), urban particulate matters (UPM, NIST 1648A), silica nanoparticles (SiO2, average diameter of 30 nm), titanium oxide nanoparticles (TiO2, average diameter of 40 nm), and carbon nanotubes (MWCNT, average diameter of 25 nm) for 24 hours, and then images were taken using fluorescence and optical microscopes (Axio Vert 200M fluorescence microscopy, Zeiss, Jena, Germany). Fluorescence of MNPs@SiO2(RITC) (average diameter of 50 nm) and quantum dot nanoparticles (CdSe, average diameter of 10 nm) which are fluorescent were photographed also.

[2] = system: microglia; conditions: 0.1 μg/μl of each of 11 nanoparticles/particulate matters, 24 hours, formazan absorbance at 490 nm
Procedure: Microglia cultured by the cell culture method of Example 1 were treated with 0.1 μg/μl of MNPs@SiO2(RITC) (average diameter of 50 nm), silica nanoparticles (SiO2, average diameter of 50 nm), silver nanoparticles (Ag, average diameter of 20 nm), gold nanoparticles (Au, average diameter of 10 nm), quantum dot nanoparticles (CdSe, average diameter of 10 nm), polystyrene microplastics (PS, average diameter of 2 μm and 100 nm), urban particulate matters (UPM, NIST 1648A), silica nanoparticles (SiO2, average diameter of 30 nm), titanium oxide nanoparticles (TiO2, average diameter of 40 nm), and carbon nanotubes (MWCNT, average diameter of 25 nm) for 24 hours, a kit (CellTilter 96 Aqueous One Solution Cell Proliferation Assay, Promega Corporation, Madison, WI) for analyzing cell viability based on the activity of succinic dehydrogenase was mixed, and the degree of formazan formation in accordance with the cell viability was measured with absorbance at 490 nm.

[3] = system: microglia; conditions: 24 hours; remark: listed apart in the source
Procedure: After the cells were suspended, the number of cells was measured and adjusted to the same cell number. The cells became luminescent according to the amount of ATP using a luciferin-based ATP luminescence measurement kit (Promega, USA), the luminescence degree was measured by a luminometer (LMaxII384; Molecular Devices, USA), and ChemiDoc™ Touch Gel Imaging System (Bio-Rad) was used for imaging.

## O=C(O)CC(O)(CC(=O)O)C(=O)O [citric acid]
[1]; 0.1 μg/μl MNPs@SiO2(RITC)
  decrease in the cell number due to particles: mitigated
[1]; 0.1 μg/μl gold nanoparticles (Au, 10 nm)
  decrease in the cell number due to particles: mitigated
[1]; 0.1 μg/μl polystyrene microplastics (PS, 2 μm)
  decrease in the cell number due to particles: mitigated
[1]; 0.1 μg/μl polystyrene microplastics (PS, 100 nm)
  decrease in the cell number due to particles: mitigated
[1]; 0.1 μg/μl quantum dot nanoparticles (CdSe, 10 nm)
  decrease in the cell number due to particles: mitigated
[1]; 0.1 μg/μl silica carbon nanotubes (MWCNT, 25 nm)
  decrease in the cell number due to particles: mitigated
[1]; 0.1 μg/μl silica nanoparticles (SiO2, 30 nm)
  decrease in the cell number due to particles: mitigated
[1]; 0.1 μg/μl silica nanoparticles (SiO2, 50 nm)
  decrease in the cell number due to particles: mitigated
[1]; 0.1 μg/μl silver nanoparticles (Ag, 20 nm)
  decrease in the cell number due to particles: mitigated
[1]; 0.1 μg/μl titanium oxide nanoparticles (TiO2, 40 nm)
  decrease in the cell number due to particles: mitigated
[1]; 0.1 μg/μl urban particulate matters (UPM, NIST 1648A)
  decrease in the cell number due to particles: mitigated
[2]
  reduction in cell viability due to nanoparticles and particulate matters: mitigated
[3]; 0.01 or 0.1 μg/μl MNPs@SiO2(RITC), luminescence
  ATP reduction induced by MNPs@SiO2(RITC): inhibited
[3]; co-treated with 0.1 μg/μl MNPs@SiO2(RITC) (50 nm)
  ATP increase compared to group treated only with MNPs@SiO2(RITC): 30%
